{"source": "patent US20190225670A1", "about": "“COMPOUNDS AND METHODS FOR ACTIVATING TIE2 SIGNALING” (ASCLEPIX THERAPEUTICS, LLC, priority 2016, published 2019)", "tested_on": "Tie2", "assay": "Retinopathy of prematurity (ROP) mouse model, Tie2 activation", "type": "in vivo", "settings": "no data given", "source_text": "To investigate the effects of AXT107 on Tie2 activation in vivo, retinopathy of prematurity (ROP) mouse model was used. In this system, P7 pups are placed in 75% 02 for five days, resulting in a loss of retinal capillary density from hyperoxia and a rapid induction of neovascularization upon the pup's return to normoxic conditions. […] Increased levels of Ang2 in the vitreous contribute to vessel leakage and macular edema in various retinopathies.", "data": [{"sequence": "LRRFSTAPFAFIDINDVINF [AXT107]", "values": [{"measurement": "activation of Tie2 by Ang2 in vivo", "value": "potentiates the activation of Tie2 by Ang2"}]}]}
